Assay results: article PMC11385693, “Synthesis of ferrocenyl benzimidazole derivatives as novel anti-Toxoplasma gondii agents” (New Journal of Chemistry, 2024)
Where “and” joins values, the source holds several entries; their conditions need not be identical. Identical values can stand only once.

How the values were obtained:
HEK293T cell line = conditions: 25 μM, MTT 48 hours
Protocol: Human prostatic epithelial cells (PNT1A) were cultured in Rosewell Park Memorial Institute (RPMI) media supplemented with 10% heat inactivated FBS. Both cell lines were incubated at 37 °C with 5% CO2. Both cell lines were obtained from ATCC.
The cells were allowed to recover overnight before the addition of compounds.
Stock solutions of the test compounds in DMSO were prepared and serially diluted in DMSO in a 96 well plate. […] 10 μL of the test compounds in media was then pipetted into the plates containing cells in triplicate. The cells were then incubated with the test compounds for 48 hours. After incubation, 10 μL of previously prepared MTT reagent was added to each well followed by incubation of the plates for 4 hours. 100 μL of solubilising agent was then pipetted into each well, and the plates incubated overnight. After overnight incubation the plates were read using a BioTek SYNERGY HTX multimode plate reader at 595 nm. Graphpad Prism 9 software was used to plot dose–response and determine cell viability.

[1] = Aqueous stability studies (UV-vis monitoring, ESI-MS follow-up); format: physicochemical; conditions: PBS pH 7.4, HEPES pH 7.0 and acetate buffer pH 4.6; 37 °C, 18 hours, 50 μM
Protocol: The stability of complexes 14–17 in an aqueous environment was investigated. The stability experiments were performed in PBS (pH 7.4) and HEPES (pH 7.0) buffers, as well as in acidic acetate buffer (pH 4.6), by monitoring the UV-vis spectra of the compounds at 37 °C over an 18-hour period.
To further investigate the stability of 14, the PBS, HEPES and acetate buffer solutions were evaporated to dryness, and then analysed using electrospray ionisation mass spectrometry in the positive ionisation mode.
PBS and HEPES buffers were prepared as described above. An acetate buffer with a concentration of […] and a pH of 4.60 was prepared by dissolving 5.40 g (65.83 mmol) of sodium acetate in 50 mL of dH2O. The resulting solution was then titrated to a pH of 4.60 with glacial acetic acid and made up to 100 mL with dH2O.
1 mM stock solutions of the synthesised target compounds in MeOH were prepared. 1.90 mL of buffer (PBS, HEPES or acetate buffer) was pipetted into cuvettes followed by the addition 100 μL of test compound stock solutions, diluting them to a final concentration of 50 μM. The cuvettes were then stoppered, inverted to mix the solution, and placed in an Agilent Cary 3500 UV-vis spectrophotometer as fast as possible. Blank solutions in matched cuvettes were also prepared by adding 100 μL of MeOH to 1.9 mL of buffer. The solutions in all the cuvettes were stirred at 400 rpm ensure proper mixing. UV spectra were then recoded every 5 minutes for 18 hours with a spectral width of 200–1100 nm to monitor the stability of the test compounds.

[2] = Turbidimetric solubility assay
Protocol: A single phosphate buffered saline (PBS) tablet (Sigma Aldrich) was dissolved in 200 mL of distilled water (dH2O) (25 °C) to obtain a PBS solution with 0.01 M phosphate buffer, 0.14 M NaCl and 0.003 M KCl.
Stock solutions of the compounds to be tested were prepared in DMSO at a concentration of 10 mM and filtered through syringe filters. Serial dilution of the stock solutions with DMSO was then carried out in a preparatory (prep) 96-well plate giving concentrations between 0.00 and 10.0 mM (0.00, 0.25, 0.50, 1.0, 2.0, 4.0, 8.0 and 10 mM). The solutions were then further diluted into 96-well assay plates containing DMSO, PBS or HEPES buffer by pipetting 4.00 μL of solution from the prep plate to the Assay plate containing 196 μL of DMSO or buffer, giving final concentrations between 0.00 and 200 μM (0.00, 5.00, 10.0, 20.0, 40.0, 80.0, 160 and 200 μM). The assay plates were incubated at 25.0 or 37.0 °C for two hours before their UV-vis absorbance was read at 620 nm with a SPECTROstar Nano microplate reader spectrophotometer. Blank readings were used to gain corrected readings by subtracting them from obtained absorbances for each compound concentration.

With `O=C(NCCn1cnc2cccnc21)[c-]1cccc1.[Fe+2].c1cc[cH-]c1` [Compound 17] the “Cell survival / % cell viability” value (HEK293T cell line) was 70%, the “Change of UV-vis spectrum over time (aqueous stability)” value [1] was “remained unchanged” and the Solubility range ([2]; HEPES (pH 7.0), 25 °C) was 20-40 µM and 7-15 µg/mL. The Solubility class ([2]; HEPES (pH 7.0), 37 °C) was “poor (solubility <10 μg mL^−1 are considered to have poor solubility)”, the Solubility range ([2]; HEPES (pH 7.0), 37 °C) was 0-5 µM and 0–2 µg/mL and the Solubility range ([2]; PBS (pH7.4), 25 °C) was 0-5 µM and 0-2 µg/mL. For the same compound, the Solubility range ([2]; PBS (pH7.4), 37 °C) was 5-10 µM and 2-4 µg/mL.
